14 compounds from ChEMBL document CHEMBL6078617, “Discovery of MK-1084: An Orally Bioavailable and Low-Dose KRASG12C Inhibitor” (J Med Chem, 2024) can be followed below.

For series [1], the target named is T1, GTPase KRas (Homo sapiens, UniProt P01116, G12C). Description: Inhibition of KRAS G12C mutant in human NCI-H358 cells assessed as reduction in Erk1/2 phosphorylation level measured for 8 hrs by Western blot analysis. It counts as cell-based. Background: In western blotting, separated proteins are transferred to a membrane and probed.
T1 sequence (P01116 whole entry G12C): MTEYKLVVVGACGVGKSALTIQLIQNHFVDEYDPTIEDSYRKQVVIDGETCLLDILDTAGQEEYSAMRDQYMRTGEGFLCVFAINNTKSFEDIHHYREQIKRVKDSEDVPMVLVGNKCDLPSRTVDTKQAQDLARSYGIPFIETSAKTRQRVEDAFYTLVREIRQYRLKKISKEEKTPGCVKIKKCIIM
The target of series [2] is T1, GTPase KRas. The series is described as follows: Inhibition of recombinant biotinylated KRAS G12C mutant (unknown origin) assessed as human SOS catalyzed nucleotide exchange measured after 60 mins by TR-FRET based guanine nucleotide exchange assay.
A short description of series [3]: Oral bioavailability in fasted Wistar-Han rat measured up to 24 hrs pre-dosed with ABT by LC-MS/MS analysis. It counts as ADME, organism-based. Particulars: in vivo.
Series [4] is described as follows: Unbound plasma clearance in fasted Wistar-Han rat measured up to 24 hrs by LC-MS/MS analysis. Type of series: ADME.
Series [5] in a line: MRT in fasted Wistar-Han rat measured up to 24 hrs by LC-MS/MS analysis. Particulars: in vivo. It counts as ADME.
The nature of series [6]: Plasma clearance in fasted Wistar-Han rat measured up to 24 hrs by LC-MS/MS analysis. It counts as ADME.
A short description of series [7]: Apparent permeability in MDCK-II cells. It counts as ADME, cell-based, Canis lupus familiaris. The settings on record: dog.
Series [8] in a line: Oral bioavailability in fasted Wistar-Han rat measured up to 24 hrs by LC-MS/MS analysis. It counts as ADME, organism-based. The settings on record: in vivo.
The nature of series [9]: Oral bioavailability in male Beagle dog measured up to 24 hrs by LC-MS/MS analysis. Particulars: in vivo. Type of series: ADME, organism-based, Canis lupus familiaris.
Series [10] in a line: MRT in male Beagle dog measured up to 24 hrs by LC-MS/MS analysis. Type of series: ADME, Canis lupus familiaris. The settings on record: in vivo.
Series [11] in a line: Plasma clearance in male Beagle dog measured up to 24 hrs by LC-MS/MS analysis. It counts as ADME, Canis lupus familiaris.
The nature of series [12]: Unbound plasma clearance in male Beagle dog measured up to 24 hrs by LC-MS/MS analysis. Type of series: ADME, Canis lupus familiaris.
For another series, the system named is MIA PaCa-2. The series is described as follows: In vivo antitumor activity against […] cells xenografted in rat model assessed as decrease in tumor volume at 30 mg/kg, po qd measured up to 21 days. It counts as functional, organism-based. The settings on record: Homo sapiens, time <= 21.0 day. A general note: A xenograft is tissue or cells of one species grown in another, often human tumour cells in immunodeficient mice.

In another series the test system is PDX LU2512. Description: In vivo antitumor activity against patient-derived PDX LU2512 cells xenografted in rat model assessed as decrease in tumor volume at 30 mg/kg, po qd measured up to 21 days. Particulars: Homo sapiens, time <= 21.0 day. Type of series: functional, organism-based.
The test system of a further series is PDX LU2529. Description: In vivo antitumor activity against patient-derived PDX LU2529 cells xenografted in rat model assessed as decrease in tumor volume at 30 mg/kg, po qd measured up to 21 days. Type of series: functional, organism-based. Particulars: Homo sapiens, time <= 21.0 day.

As a reminder, the IC50 is the midpoint of a concentration-inhibition curve. The bioavailability is dose-corrected exposure relative to a reference, in per cent. As a reminder, the MRT is a mean duration of stay, worked out from the concentration-time curve. A word on the clearance: it is the rate of elimination divided by the concentration. A higher clearance goes with efficient removal. A word on the Papp: it is a coefficient for how fast a substance crosses the barrier.

Activity calls are given as the source filed them. No cut-off for these calls is given here.

As for `C=CC(=O)N1CCN(c2nc(=O)n3c4nc(c(Cl)cc24)-c2c(F)cccc2OCCc2ccccc2-3)[C@@H](C)C1`, the concentration for half-maximal inhibition (IC50) at GTPase KRas [1] amounted to 3830 nM; at GTPase KRas [2], 1410 nM.

On to `C=CC(=O)N1C[C@H](C)N(c2nc(=O)n3c4nc(c(F)cc24)-c2c(F)cccc2OCCOc2ccnc(C(C)C)c2-3)C[C@H]1C`, for which the bioavailability in series [3] turned out to be 11%; in series [8] it was 5%. For the same compound, the results for the IC50 at GTPase KRas [1] and at GTPase KRas [2] were 11 nM and 6.5 nM, respectively. The CL free in series [4] was 299 mL/min/kg. For the same compound, the MRT in series [5] was determined as 0.6 h. Further, in [6], the clearance worked out at 49 mL/min/kg. In series [7], the Papp amounted to 8 ×10⁻⁶ cm/s.

As to `C=CC(=O)N1C[C@H](C)N(c2nc(=O)n3c4nc(c(F)cc24)-c2c(F)cc(F)cc2OCC(F)(F)CCc2ccnc(C(C)C)c2-3)C[C@H]1C`, the IC50 at GTPase KRas [1] came to 8.9 nM; on GTPase KRas [2], 1.1 nM. The values for the CL free in series [4] and in series [12] were 270 mL/min/kg and 194 mL/min/kg, respectively. The results for the MRT in series [5] and in [10] were 2.6 h and 2.5 h, respectively. Besides, the figures for the clearance in series [6] and in [11] were 10 mL/min/kg and 9.7 mL/min/kg, respectively. Moreover, the bioavailability was 76% in series [9] and 53% in [8]. Moreover, the Papp in [7] was found to be 31 ×10⁻⁶ cm/s.

With `C=CC(=O)N1C[C@H](C)N(c2nc(=O)n3c4nc(c(F)cc24)-c2c(ccc(F)c2F)OCCOc2ccnc(C(C)C)c2-3)C[C@H]1C`, the IC50 at GTPase KRas [1] worked out at 10 nM; at GTPase KRas [2], 5.3 nM. This compound also came in with a CL free in series [4] of 434 mL/min/kg. In series [5], the MRT came out at 0.7 h. In [6], the clearance came out at 26 mL/min/kg. For the same compound, in series [7], the apparent permeability coefficient (Papp) is 9 ×10⁻⁶ cm/s. The bioavailability in series [8] was found to be 10%.

For the compound `C=CC(=O)N1CCN(c2nc(=O)n3c4nc(c(F)cc24)-c2c(F)cccc2OCCCOc2ccnc(C(C)C)c2-3)[C@@H](C)C1`, the IC50 on GTPase KRas [1] came to 21 nM; on GTPase KRas [2] it was 11 nM.

`C=CC(=O)N1C[C@H](C)N(c2nc(=O)n3c4nc(c(F)cc24)-c2c(F)cccc2OCCCc2ccnc(C(C)C)c2-3)C[C@H]1C`: the results for the IC50 on GTPase KRas [1] and on GTPase KRas [2] were 7.4 nM and 1.7 nM, respectively.

As to `C=CC(=O)N1C[C@H](C)N(c2nc(=O)n3c4nc(c(Cl)cc24)-c2c(F)ccc(F)c2OCCOc2ccnc(C(C)C)c2-3)C[C@H]1C`, the IC50 at GTPase KRas [1] turned out to be 9 nM; on GTPase KRas [2], 1.2 nM. Besides, the outcome in the series with MIA PaCa-2, with PDX LU2512 and in the series with PDX LU2529 was Active. Besides, the CL free in series [4] is 606 mL/min/kg; in series [12] it was 243 mL/min/kg. In addition, the MRT in [5] and in [10] was 1.1 h throughout. In addition, the clearance is 22 mL/min/kg in series [6] and 28 mL/min/kg in [11]. Also, the bioavailability in series [9] came to 58%; in series [8], 61%. The Papp in series [7] is 20 ×10⁻⁶ cm/s.

On to `C=CC(=O)N1C[C@H](C)N(c2nc(=O)n3c4nc(c(F)cc24)-c2c(F)cccc2OCC(F)(F)CCc2ccnc(C(C)C)c2-3)C[C@H]1C`, for which the IC50 on GTPase KRas [1] turned out to be 6.6 nM; on GTPase KRas [2], 2.9 nM. The CL free came out at 113 mL/min/kg in series [4] and 160 mL/min/kg in series [12]. Further, the MRT came to 2.3 h in [5] and 2.2 h in [10]. The clearance in [6] was 9.7 mL/min/kg; in [11], 18 mL/min/kg. In addition, the bioavailability amounted to 59% in [9] and 12% in [8]. For the same compound, the Papp in [7] worked out at 23 ×10⁻⁶ cm/s.

In the case of `C=CC(=O)N1C[C@H](C)N(c2nc(=O)n3c4nc(c(F)cc24)-c2c(F)ccc(F)c2OCCOc2ccnc(C(C)C)c2-3)C[C@H]1C`, the IC50 on GTPase KRas [1] was found to be 28 nM; at GTPase KRas [2] it was 3.5 nM. For the same compound, the CL free in series [4] turned out to be 126 mL/min/kg; in series [12], 130 mL/min/kg. Moreover, the results for the MRT in series [5] and in series [10] were 1.4 h and 0.8 h, respectively. For the same compound, the clearance in [6] came out at 13 mL/min/kg; in series [11], 32 mL/min/kg. Besides, the bioavailability worked out at 67% in [9] and 25% in series [8]. In series [7], the apparent permeability (Papp) was found to be 15 ×10⁻⁶ cm/s.

On to `C=CC(=O)N1C[C@H](C)N(c2nc(=O)n3c4nc(c(F)cc24)-c2c(ccc(F)c2F)OCC(F)(F)CCc2ccnc(C(C)C)c2-3)C[C@H]1C`, for which the IC50 is 5.2 nM on GTPase KRas [1] and 3 nM on GTPase KRas [2]. Besides, the CL free turned out to be 213 mL/min/kg in series [4] and 128 mL/min/kg in series [12]. Moreover, the MRT in [5] was found to be 1.8 h; in [10], 3.3 h. The figures for the clearance in series [6] and in series [11] were 13 mL/min/kg and 7.3 mL/min/kg, respectively. The bioavailability was found to be 80% in [9] and 42% in series [8]. Also, the Papp in series [7] worked out at 25 ×10⁻⁶ cm/s.

Consider `C=CC(=O)N1C[C@H](C)N(c2nc(=O)n3c4nc(c(C)cc24)-c2c(F)ccc(F)c2OCCOc2ccnc(C(C)C)c2-3)C[C@H]1C`, for which the figures for the half-maximal inhibitory concentration (IC50) on GTPase KRas [1] and at GTPase KRas [2] were 30 nM and 4.5 nM, respectively. In addition, the CL free in series [4] was 148 mL/min/kg. In series [5], the MRT came out at 0.9 h. In [6], the clearance was 12 mL/min/kg. Moreover, the Papp in [7] turned out to be 13 ×10⁻⁶ cm/s. In addition, the bioavailability in series [8] came out at 17%.

`C=CC(=O)N1CCN(c2nc(=O)n3c4nc(c(F)cc24)-c2c(F)cccc2OCCCCc2ccnc(C(C)C)c2-3)[C@@H](C)C1`: the bioavailability in series [3] is 50%; in [8], 2%. The IC50 at GTPase KRas [1] turned out to be 4.8 nM; on GTPase KRas [2], 1.2 nM. The same compound showed a CL free in series [4] of 770 mL/min/kg. Moreover, the mean residence time (MRT) in [5] was 0.4 h. The clearance in series [6] was determined as 80 mL/min/kg. In addition, the apparent permeability (Papp) in series [7] was found to be 17 ×10⁻⁶ cm/s.

Consider `C=CC(=O)N1CCN(c2nc(=O)n3c4nc(c(F)cc24)-c2c(F)cccc2OCCCc2ccnc(C(C)C)c2-3)[C@@H](C)C1`, for which the IC50 stood at 5.4 nM on GTPase KRas [1] and 4.3 nM on GTPase KRas [2].

As to `C=CC(=O)N1C[C@H](C)N(c2nc(=O)n3c4nc(c(F)cc24)-c2c(F)cc(F)cc2OCCOc2ccnc(C(C)C)c2-3)C[C@H]1C`, the results for the IC50 on GTPase KRas [1] and on GTPase KRas [2] were 16 nM and 6.9 nM, respectively. The CL free in series [4] was 407 mL/min/kg. The same compound returned a mean residence time (MRT) in series [5] of 0.7 h. Moreover, the clearance in [6] came to 40 mL/min/kg. In addition, the bioavailability in [8] worked out at 12%.
